US20100311642A1, “USE OF V2 RECEPTOR ANTAGONISTS IN COMBINATION WITH VASO PRESSINERGIC AGNOSTS” (Ferring B.V., priority 2007, published 2010)
pEC50, pKi: −log10 of the molar value. “Also recorded” adds a separate entry of the source. Blank lines part the entries; values can stand above or below the compound they belong to. Positions of bridges follow the written chain, without caps; N, C: chain ends. Residues, ends and D or L forms follow the SMILES beside them.

Columns and labels:
[1] = target: T1, human V1a receptor (hV1aR) (Homo sapiens, UniProt P37288); test: Antagonist transcriptional reporter gene assay, human V1a receptor; type: cell-based; conditions: hV1a, HEK-293 reporter gene, vs AVP
T1 construct: expressed in transfected cells; host or cells: HEK-293
T1 sequence (P37288 whole entry): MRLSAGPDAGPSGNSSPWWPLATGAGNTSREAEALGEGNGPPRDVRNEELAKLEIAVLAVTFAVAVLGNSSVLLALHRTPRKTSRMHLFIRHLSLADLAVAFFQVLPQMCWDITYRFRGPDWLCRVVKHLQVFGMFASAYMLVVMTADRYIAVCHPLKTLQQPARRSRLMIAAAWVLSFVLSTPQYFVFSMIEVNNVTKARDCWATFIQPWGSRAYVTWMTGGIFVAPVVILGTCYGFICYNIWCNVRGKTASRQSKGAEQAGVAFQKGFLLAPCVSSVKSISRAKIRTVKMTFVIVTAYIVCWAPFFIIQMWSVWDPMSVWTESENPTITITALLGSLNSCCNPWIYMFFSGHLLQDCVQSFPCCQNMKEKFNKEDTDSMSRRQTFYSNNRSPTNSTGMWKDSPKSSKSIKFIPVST
Protocol: (§1) Agonist activity of compounds on the human V1a receptor (hV1aR) and the rat V1a receptor (rV 1 aR) was determined in a transcriptional reporter gene assay in which HEK-293 cells were transiently co-transfected with either the human or rat V1a receptor, and a reporter DNA containing intracellular calcium responsive promoter elements regulating expression of firefly luciferase.
(§2) Antagonist activity of compounds on the human V1a receptor (hV1aR) and the rat V1a receptor (rV 1 aR) was determined in a transcriptional reporter gene assay as in section III.A; see Boss, V. et al. supra. […] Ki values were calculated from IC50 values.

rat V1a receptor (rV1aR) [2] = target: T2, rat V1a receptor (rV1aR) (Rattus norvegicus, UniProt P30560); test: Antagonist transcriptional reporter gene assay, rat V1a receptor; type: cell-based; conditions: rV1a, HEK-293 reporter gene, vs AVP; for pKi: Ki calculated from IC50, read-out: Geomean Ki
T2 construct: expressed in transfected cells; host or cells: HEK-293
T2 sequence (P30560 whole entry): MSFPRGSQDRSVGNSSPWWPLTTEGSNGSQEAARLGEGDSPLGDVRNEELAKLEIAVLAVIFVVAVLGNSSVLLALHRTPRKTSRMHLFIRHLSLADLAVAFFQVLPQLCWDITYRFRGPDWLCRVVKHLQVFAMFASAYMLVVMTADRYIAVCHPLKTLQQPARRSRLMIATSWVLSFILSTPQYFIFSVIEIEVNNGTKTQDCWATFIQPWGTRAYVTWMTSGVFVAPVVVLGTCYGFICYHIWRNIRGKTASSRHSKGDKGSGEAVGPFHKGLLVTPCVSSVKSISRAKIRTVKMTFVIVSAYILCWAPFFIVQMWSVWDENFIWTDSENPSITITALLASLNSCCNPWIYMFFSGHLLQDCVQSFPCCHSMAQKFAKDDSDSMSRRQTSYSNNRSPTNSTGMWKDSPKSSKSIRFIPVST
Protocol: as §1, §2

human V2 receptor (hV2R) [3] = target: T3, human V2 receptor (hV2R) (Homo sapiens, UniProt P30518); test: Antagonist transcriptional reporter gene assay, human V2 receptor; type: cell-based; conditions: hV2, HEK-293 reporter gene, vs AVP
T3 construct: expressed in transfected cells; host or cells: HEK-293
T3 sequence (P30518 whole entry): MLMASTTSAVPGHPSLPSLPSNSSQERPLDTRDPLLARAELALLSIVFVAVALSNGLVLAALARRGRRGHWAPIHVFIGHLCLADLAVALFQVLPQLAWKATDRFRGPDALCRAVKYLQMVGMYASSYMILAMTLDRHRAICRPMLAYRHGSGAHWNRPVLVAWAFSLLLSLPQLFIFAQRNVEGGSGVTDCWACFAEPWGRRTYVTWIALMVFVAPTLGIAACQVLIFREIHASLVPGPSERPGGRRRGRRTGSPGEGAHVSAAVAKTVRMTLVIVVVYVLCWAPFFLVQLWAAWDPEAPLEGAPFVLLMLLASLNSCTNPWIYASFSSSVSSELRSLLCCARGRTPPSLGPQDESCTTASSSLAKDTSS
Protocol: (§3) Agonist activity of compounds on the human V2 receptor (hV2R) and the rat V2 receptor (rV2R) was determined in a transcriptional reporter gene assay in which HEK-293 cells were transiently transfected with either the human or rat V2 receptor, and a reporter DNA containing cyclic-AMP responsive promoter elements regulating expression of firefly luciferase. See Castarion, M. J., Spevak, W., Biochem Biophys Res Commun.1994 Jan.
(§4) Antagonist activity of compounds on the human V2 receptor (hV2R) and the rat V2 receptor (rV2R) was determined in a transcriptional reporter gene assay as in section III.A; see Castañón, M. J. et al. supra. […] Ki values were calculated from IC50 values.

rat V2 receptor (rV2R) [4] = target: T4, rat V2 receptor (rV2R) (Rattus norvegicus, UniProt Q00788); test: Antagonist transcriptional reporter gene assay, rat V2 receptor; type: cell-based; conditions: rV2, HEK-293 reporter gene, vs AVP; for pKi: Ki calculated from IC50, read-out: Geomean Ki
T4 construct: expressed in transfected cells; host or cells: HEK-293
T4 sequence (Q00788 whole entry): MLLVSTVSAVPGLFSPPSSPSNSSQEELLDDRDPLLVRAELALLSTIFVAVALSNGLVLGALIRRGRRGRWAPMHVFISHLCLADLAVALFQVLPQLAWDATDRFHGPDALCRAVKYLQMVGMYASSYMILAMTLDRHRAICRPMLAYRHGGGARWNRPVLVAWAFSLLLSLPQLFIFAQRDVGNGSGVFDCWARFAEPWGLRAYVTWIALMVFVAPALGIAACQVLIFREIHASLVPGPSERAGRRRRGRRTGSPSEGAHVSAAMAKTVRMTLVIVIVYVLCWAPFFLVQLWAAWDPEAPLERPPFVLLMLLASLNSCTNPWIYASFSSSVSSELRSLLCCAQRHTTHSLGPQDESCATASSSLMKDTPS
Protocol: as §3, §4

human V2 receptor (hV2R) [5] = target: T3, human V2 receptor (hV2R); test: Agonist transcriptional reporter gene assay, human V2 receptor; type: cell-based; conditions: hV2, HEK-293 reporter gene; for pEC50: 5 hours
[6] = target: T1, human V1a receptor (hV1aR); test: Agonist transcriptional reporter gene assay, human V1a receptor; type: cell-based; conditions: hV1a, HEK-293 reporter gene; for pEC50: 5 hours
rat V2 receptor (rV2R) [7] = target: T4, rat V2 receptor (rV2R); test: Agonist transcriptional reporter gene assay, rat V2 receptor; type: cell-based; conditions: rV2, HEK-293 reporter gene
rat V1a receptor (rV1aR) [8] = target: T2, rat V1a receptor (rV1aR); test: Agonist transcriptional reporter gene assay, rat V1a receptor; type: cell-based; conditions: rV1a, HEK-293 reporter gene
sheep model of sepsis = test: Sheep model of sepsis (smoke inhalation + Pseudomonas aeruginosa); type: in vivo; conditions: septic sheep, continuous i.v. infusion titrated, 24 hours
Text: A. Description of Model & Experimental Design • Septic shock is caused by hypotension secondary to vasodilation. […] The combination of a selective V2 receptor agonist, desmopressin, and a selective V1a receptor agonist models to some extent the non-selective V1a/V2 receptor agonist activity of vasopressin and other related compounds having non-selective activity.
Method: Sheep are surgically instrumented ahead of the study. After obtaining baseline data, they are anesthetized and insufflated with 48 breaths of cotton smoke and 10^11 colony forming units of Pseudomonas aeruginosa instilled into their airways via a tracheostomy. The sheep are then placed on a ventilator and awakened for the study. They are resuscitated with Ringer's solution to maintain left atrial and central venous pressures and hematocrit at baseline levels. If, despite fluid management, mean arterial pressure (MAP) falls by 10 mm Hg from baseline, a continuous intravenous infusion of AVP, the selective V1a receptor agonist, or the selective V1a receptor agonist+the selective V2 agonist desmopressin is initiated and titrated to keep MAP within this limit, except in a septic control group and in a non-septic sham group. Parameters measured include Mean Arterial Pressure (a measure of vasodilation/hypotension) and Fluid Balance (a measure of vascular leak).
Additional information about sepsis model and method available in Murakami K, Bjertnaes L T, Schmalstieg F C, McGuire R, Cox R A, Hawkins H K, Herndon D N, Traber L D, Traber D L (2002): A novel animal model of sepsis after acute lung injury in sheep. Crit. Care Med, 30:2083-2090.

[9] = system: venular microvessels in rat mesentery; test: Rat mesenteric post-capillary venule permeability (hydraulic conductivity Lp, PAF); conditions: PAF 10 nM
Protocol: We tested the hypothesis that the selective V2 receptor agonist desmopressin would potentiate the increase in microvessel permeability induced by platelet activating factor [PAF], an inflammatory mediator involved in sepsis.
Method: Individual venular microvessels in rat mesentery were cannulated and perfused with mammalian Ringer containing 10 mg/ml albumin to measure hydraulic conductivity (Lp) by the modified Landis technique. The vessels were then exposed to PAF (10 nM) with monitoring of hydraulic conductivity (Lp). The same vessels are then exposed to a selective V2 receptor agonist, desmopressin, followed by a second exposure to PAF with monitoring of hydraulic conductivity (Lp).
Additional information about microvascular permeability model and method available in Curry, FE, “The Measurement of Hydraulic Conductivity”, Microcirculatory Technology, Academic Press, 1986, pp 429-446.

[10] = Ki calculated from IC50, read-out: Geomean Ki

Efficacy Antag [1]: 10%
pKi [1, 10]: < 6.02
Efficacy Antag (rat V1a receptor (rV1aR) [2]): 6%
pKi (rat V1a receptor (rV1aR) [2]): < 6.47
Efficacy Antag (human V2 receptor (hV2R) [3]): 109%
pKi (human V2 receptor (hV2R) [3]; [10]): 8.82
Efficacy Antag (rat V2 receptor (rV2R) [4]): 100%
pKi (rat V2 receptor (rV2R) [4]): 9.22
Compound: CCOc1ccc2c(c1)C1(CCC(OCCN3CCOCC3)CC1)C(=O)N2S(=O)(=O)c1ccc(C(=O)NC(C)(C)C)cc1OC (stereo not drawn) [satavaptan]

Efficacy (human V2 receptor (hV2R) [5]): 79%
pEC50 (human V2 receptor (hV2R) [5]): 6.92
Efficacy [6]: 66%
pEC50 [6]: 6.91
Compound: NCCCC[C@H](NC(=O)[C@@H]1CCCN1C(=O)[C@@H]1CSSC[C@H](NC(=O)CNC(=O)CNC(=O)CN)C(=O)N[C@@H](Cc2ccc(O)cc2)C(=O)N[C@@H](Cc2ccccc2)C(=O)N[C@@H](CCC(N)=O)C(=O)N[C@@H](CC(N)=O)C(=O)N1)C(=O)NCC(N)=O [H-Gly3-LVP, terlipressin, terlipressin] (H-GGGCYFQNCPKG-NH2; disulfide 4-9)

Efficacy (human V2 receptor (hV2R) [5]): 92%
pEC50 (human V2 receptor (hV2R) [5]): 9.55
Efficacy (rat V2 receptor (rV2R) [7]): 99%
pEC50 (rat V2 receptor (rV2R) [7]; 5 hours): 8.95
Efficacy [6]: 98%
pEC50 [6]: 9.03
Efficacy (rat V1a receptor (rV1aR) [8]): 99%
pEC50 (rat V1a receptor (rV1aR) [8]; 5 hours): 9.70
Compound: NCCCC[C@H](NC(=O)[C@@H]1CCCN1C(=O)[C@@H]1CSSC[C@H](N)C(=O)N[C@@H](Cc2ccc(O)cc2)C(=O)N[C@@H](Cc2ccccc2)C(=O)N[C@@H](CCC(N)=O)C(=O)N[C@@H](CC(N)=O)C(=O)N1)C(=O)NCC(N)=O [Lysine Vasopressin, LVP, lysine vasopressin]

Compound: Cc1ccccc1C(=O)Nc1ccc(C(=O)N2CCCC(N(C)C)c3ccccc32)cc1 (stereo not drawn) [mozavaptan]
Efficacy Antag [1]: 85%
Efficacy Antag (rat V1a receptor (rV1aR) [2]): 40%
Efficacy Antag (human V2 receptor (hV2R) [3]): 107%
Efficacy Antag (rat V2 receptor (rV2R) [4]): 85%

Compound: ornithine vasopressin [[Orn8] Vasopressin, OVP]
Efficacy (rat V2 receptor (rV2R) [7]): 111%

Compound: NC(=O)CC[C@@H]1NC(=O)[C@H](Cc2ccccc2)NC(=O)[C@H](Cc2ccc(O)cc2)NC(=O)[C@@H](N)CSSC[C@@H](C(=O)N2CCC[C@H]2C(=O)N[C@@H](CCCN=C(N)N)C(=O)NCC(N)=O)NC(=O)[C@H](CC(N)=O)NC1=O [Arginine vasopressin, AVP, arginine vasopressin]
Fluid retention / vascular leak (fluid balance) (sheep model of sepsis): showed symptoms of vascular leak syndrome; also recorded: less effective
Mean arterial pressure (MAP) (sheep model of sepsis): efficacious in maintaining mean arterial pressure; also recorded: less effective
Efficacy (rat V2 receptor (rV2R) [7]): 100%

Compound: [Pmp1,D-Ile2,Ile4,Arg8]vasopressin-(1-8)-OH [[Pmp1, D-Ile2, Ile4]AVP-(1-8)-OH]
Efficacy Antag (rat V2 receptor (rV2R) [4]): 105%

Compound: [Pmp1,D-Ile2,Ile4,Arg8]vasopressin [[Pmp1, D-Ile2, Ile4]AVP]
Efficacy Antag (rat V2 receptor (rV2R) [4]): 97%

Compound: NC(=O)CC[C@@H]1NC(=O)[C@H](Cc2ccccc2)NC(=O)[C@H](Cc2ccc(O)cc2)NC(=O)CCSSC[C@@H](C(=O)N2CCC[C@H]2C(=O)N[C@H](CCCN=C(N)N)C(=O)NCC(N)=O)NC(=O)[C@H](CC(N)=O)NC1=O [desmopressin]
Fluid retention / vascular leak (fluid balance) (sheep model of sepsis): decreased the effectiveness of the V1a agonist to the level of AVP
Mean arterial pressure (MAP) (sheep model of sepsis): decreased the effectiveness of the V1a agonist to the level of AVP
peak Lp with PAF in presence of desmopressin relative to peak Lp with PAF alone ([9]; desmopressin 10 pM for 40 minutes): not increased
peak Lp with PAF in presence of desmopressin relative to peak Lp with PAF alone ([9]; desmopressin 30 pM for 40 minutes, ±0.4 SEM, n=8): 2.1 fold
peak Lp with PAF in presence of desmopressin relative to peak Lp with PAF alone ([9]; desmopressin 100 pM for 40 minutes, ±0.9 SEM, n=5): 2.8 fold

Efficacy Antag [1]: 101%
Efficacy Antag (rat V1a receptor (rV1aR) [2]): 26%
pKi (rat V1a receptor (rV1aR) [2]): < 6.47
Efficacy Antag (human V2 receptor (hV2R) [3]): 97%
Efficacy Antag (rat V2 receptor (rV2R) [4]): 102%
pKi (rat V2 receptor (rV2R) [4]): 8.48
Compound: Cc1ccccc1C(=O)Nc1ccc(C(=O)N2CCCC(O)c3cc(Cl)ccc32)c(C)c1 (stereo not drawn) [tolvaptan]

Compound: Cc1nc2c([nH]1)-c1ccccc1N(C(=O)c1ccc(NC(=O)c3ccccc3-c3ccccc3)cc1)CC2 [conivaptan]
Efficacy Antag [1]: 81%
Efficacy Antag (rat V1a receptor (rV1aR) [2]): 99%
Efficacy Antag (human V2 receptor (hV2R) [3]): 92%
Efficacy Antag (rat V2 receptor (rV2R) [4]): 97%
